Tests used:
Rattus norvegicus [1] = assay: Anti-inflammatory activity in Rattus norvegicus Wistar albino (rat) assessed as inhibition of carrageenan-induced hind paw edema at 10 mg/kg, po measured at 3 hr relative to control; format: functional
Rattus norvegicus [2] = assay: Analgesic activity in Rattus norvegicus Wistar albino (rat) at 20 mg/kg, ip measured at 30 min by tail immersion method relative to control; format: functional; conditions: route intraperitoneal
Rattus norvegicus [3] = assay: Anti-inflammatory activity in Rattus norvegicus Wistar albino (rat) assessed as inhibition of carrageenan-induced hind paw edema at 10 mg/kg, po measured at 4 hr relative to control; format: functional
Rattus norvegicus [4] = assay: Ulcerogenic activity in Rattus norvegicus Wistar albino (rat) stomach assessed as ulcer index at 30 mg/kg, po measured after 17 hr relative to control; format: toxicity, organism-based; design: dose 30 mg/kg, route oral; conditions: in vivo
Rattus norvegicus [5] = assay: Antioxidant activity in Rattus norvegicus Wistar albino (rat) stomach assessed as decrease in malondialdehyde content measured per 100 mg of tissue at 30 mg/kg, po after 60 min by spectrophotometric analysis (reference value: 3.86 +/- 0.19 nmol); format: functional

Row | Structure (SMILES) | inhibition in vivo at 10 mg/kg (Rattus norvegicus [1]) [%] | Activity (Rattus norvegicus [2]) [%] | inhibition in vivo at 10 mg/kg (Rattus norvegicus [3]) [%] | UI (Rattus norvegicus [4]) | Activity (Rattus norvegicus [5]) [nmol]
1 | Cc1nn(-c2ccccc2)c(Cl)c1/C=N/NC(=O)c1ccc([N+](=O)[O-])cc1 | 12.1 | 92.8 | 54.4 | – | –
2 | Cc1nn(-c2ccccc2)c(Cl)c1/C=N/NC(=O)c1ccc(Cl)cc1Cl | 51.5 | 172.6 | 74.7 | – | –
3 | Cc1nn(-c2ccccc2)c(Cl)c1/C=N/NC(=O)COc1ccccc1 | – | – | – | 0.41 | –
4 | Cc1nn(-c2ccccc2)c(Cl)c1/C=N/NC(=O)c1ccc(F)cc1 | 36.4 | 187.8 | 67.1 | – | –
5 | Cc1nn(-c2ccccc2)c(Cl)c1/C=N/NC(=O)c1ccc(Cl)cc1 | 42.4 | 160.4 | 63.3 | 0.25 | 4.51
6 | Cc1nn(-c2ccccc2)c(Cl)c1/C=N/NC(=O)Cc1cccc2ccccc12 | 42.4 | 116.3 | 55.7 | – | –
7 | Cc1nn(-c2ccccc2)c(Cl)c1/C=N/NC(=O)Cc1ccc(Cl)cc1 | 57.6 | 193.1 | 70.9 | – | –
8 | Cc1nn(-c2ccccc2)c(Cl)c1/C=N/NC(=O)c1ccccc1Cl | – | 149 | – | – | –
9 | Cc1nn(-c2ccccc2)c(Cl)c1/C=N/NC(=O)c1ccc(Br)cc1 | – | 158.7 | – | – | –
10 | O=C(O)Cc1ccccc1Nc1c(Cl)cccc1Cl [DICLOFENAC] | – | 749.3 | – | – | –
11 | COc1ccc2c(c1)c(CC(=O)O)c(C)n2C(=O)c1ccc(Cl)cc1 [INDOMETHACIN] | 48.5 | – | 77.2 | 4.5 | 21.98
